These results are taken from the supplement of paper PMC10307832.

Common to all, as to assay: relative viability (nuclei count vs DMSO), 5 days (fraction); higher = more cells survive
Compound in the assay “GSK-J4 + Dasatinib”: CCOC(=O)CCNc1cc(N2CCc3ccccc3CC2)nc(-c2ccccn2)n1 [GSK-J4] + Cc1nc(Nc2ncc(C(=O)Nc3c(C)cccc3Cl)s2)cc(N2CCN(CCO)CC2)n1 [Dasatinib] (partner 0.075 µM)
A digest of the protocol:
(§1)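 Lung cancer cell lines in 1536-well plates were dosed by pin tool the day after seeding, either with one drug alone or with a fixed anchor-drug dose plus five library-drug doses (not always all listed) in √10 steps. After 5 days, cells were fixed and their nuclei stained in one step (final 0.05% Triton X-100, 1% formaldehyde, 1 ug/ml Hoechst), then counted on 4× images. Relative viability is the nuclei count in treated wells divided by that in vehicle wells. Values are medians of duplicate plates.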

Compound in the assay “AZ3146 + Bortezomib”: CN1CCC(CC1)OC2=CC(=C(C=C2)NC3=NC=C4C(=N3)N(C(=O)N4C)C5CCCC5)OC [AZ3146] + CC(C)C[C@H](NC(=O)[C@H](Cc1ccccc1)NC(=O)c1cnccn1)B(O)O [Bortezomib] (partner 0.002 µM)
In a few lines:
as §1

Compound in the assay “AZ3146 + Tozasertib”: CN1CCC(CC1)OC2=CC(=C(C=C2)NC3=NC=C4C(=N3)N(C(=O)N4C)C5CCCC5)OC [AZ3146] + Cc1cc(Nc2cc(N3CCN(C)CC3)nc(Sc3ccc(NC(=O)C4CC4)cc3)n2)n[nH]1 [Tozasertib] (partner 0.1 µM)
In a few lines: as §1

Compound in the assay “AZ3146 + Pemetrexed”: CN1CCC(CC1)OC2=CC(=C(C=C2)NC3=NC=C4C(=N3)N(C(=O)N4C)C5CCCC5)OC [AZ3146] + Nc1nc2[nH]cc(CCc3ccc(C(=O)N[C@@H](CCC(=O)O)C(=O)O)cc3)c2c(=O)[nH]1 [Pemetrexed] (partner 0.2 µM)
A digest of the protocol: as §1

LCLC-103H: the relative viability with GSK-J4 + Dasatinib (first compound 0.5 µM) was found to be 0.406; with GSK-J4 + Dasatinib (first compound 1.581 µM), 0.428; with GSK-J4 + Dasatinib (first compound 5 µM), 0.256; with GSK-J4 + Dasatinib (first compound 15.81 µM), 0.281; with GSK-J4 + Dasatinib (first compound 50 µM), 0.45; in the assay with AZ3146 + Bortezomib (first compound 0.08 µM), 0.993. Besides, the relative viability with AZ3146 + Bortezomib (first compound 0.253 µM) amounted to 1.03; with AZ3146 + Bortezomib (first compound 0.8 µM), 1; in the assay with AZ3146 + Bortezomib (first compound 2.53 µM), 0.994; with AZ3146 + Bortezomib (first compound 8 µM), 0.965; with AZ3146 + Tozasertib (first compound 0.08 µM), 0.418; with AZ3146 + Tozasertib (first compound 0.253 µM), 0.523. Further, the relative viability with AZ3146 + Tozasertib (first compound 0.8 µM) turned out to be 0.498; with AZ3146 + Tozasertib (first compound 2.53 µM) it was 0.45; with AZ3146 + Tozasertib (first compound 8 µM), 0.409; with AZ3146 + Pemetrexed (first compound 0.08 µM) it was 0.429; with AZ3146 + Pemetrexed (first compound 0.253 µM), 0.439; with AZ3146 + Pemetrexed (first compound 0.8 µM), 0.444. Also, the figures for the relative viability with AZ3146 + Pemetrexed (first compound 2.53 µM) and with AZ3146 + Pemetrexed (first compound 8 µM) were 0.49 and 0.499, respectively.

Consider LOU-NH91, for which the relative viability in the assay with GSK-J4 + Dasatinib (first compound 0.5 µM) was 0.65; with GSK-J4 + Dasatinib (first compound 1.581 µM), 0.612; with GSK-J4 + Dasatinib (first compound 5 µM) it was 0.432; in the assay with GSK-J4 + Dasatinib (first compound 15.81 µM) it was 0.506; with GSK-J4 + Dasatinib (first compound 50 µM) it was 0.631; in the assay with AZ3146 + Bortezomib (first compound 0.08 µM), 1.02. Moreover, the relative viability with AZ3146 + Bortezomib (first compound 0.253 µM) was 0.489; with AZ3146 + Bortezomib (first compound 0.8 µM), 0.533; in the assay with AZ3146 + Bortezomib (first compound 2.53 µM), 0.478; with AZ3146 + Bortezomib (first compound 8 µM), 0.51; with AZ3146 + Tozasertib (first compound 0.08 µM) it was 0.453; in the assay with AZ3146 + Tozasertib (first compound 0.253 µM), 0.668. Further, the relative viability with AZ3146 + Tozasertib (first compound 0.8 µM) worked out at 0.664; with AZ3146 + Tozasertib (first compound 2.53 µM) it was 0.525; with AZ3146 + Tozasertib (first compound 8 µM) it was 0.365; in the assay with AZ3146 + Pemetrexed (first compound 0.08 µM) it was 0.327; with AZ3146 + Pemetrexed (first compound 0.253 µM), 0.448; with AZ3146 + Pemetrexed (first compound 0.8 µM) it was 0.362. Further, the relative viability turned out to be 0.368 with AZ3146 + Pemetrexed (first compound 2.53 µM) and 0.411 with AZ3146 + Pemetrexed (first compound 8 µM).

LU99A: the relative viability worked out at 0.441 with GSK-J4 + Dasatinib (first compound 0.5 µM); 0.582 with GSK-J4 + Dasatinib (first compound 1.581 µM); 0.457 with GSK-J4 + Dasatinib (first compound 15.81 µM); 0.374 in the assay with GSK-J4 + Dasatinib (first compound 50 µM); 0.91 with AZ3146 + Bortezomib (first compound 0.08 µM); 1.16 with AZ3146 + Bortezomib (first compound 0.253 µM). Besides, the relative viability with AZ3146 + Bortezomib (first compound 0.8 µM) is 1.21; with AZ3146 + Bortezomib (first compound 2.53 µM) it was 1.1; with AZ3146 + Bortezomib (first compound 8 µM) it was 1.18; with AZ3146 + Tozasertib (first compound 0.08 µM), 0.279; with AZ3146 + Tozasertib (first compound 0.253 µM), 0.269; with AZ3146 + Tozasertib (first compound 0.8 µM) it was 0.248. The relative viability came to 0.238 with AZ3146 + Tozasertib (first compound 2.53 µM); 0.245 in the assay with AZ3146 + Tozasertib (first compound 8 µM); 0.188 in the assay with AZ3146 + Pemetrexed (first compound 0.253 µM); 0.181 with AZ3146 + Pemetrexed (first compound 0.8 µM); 0.165 in the assay with AZ3146 + Pemetrexed (first compound 2.53 µM); 0.186 with AZ3146 + Pemetrexed (first compound 8 µM).

On to LXF-289, for which the relative viability with GSK-J4 + Dasatinib (first compound 0.5 µM) is 0.21; in the assay with GSK-J4 + Dasatinib (first compound 1.581 µM), 0.181; with GSK-J4 + Dasatinib (first compound 5 µM), 0.0979; in the assay with GSK-J4 + Dasatinib (first compound 15.81 µM), 0.121; with GSK-J4 + Dasatinib (first compound 50 µM), 0.177; with AZ3146 + Bortezomib (first compound 0.08 µM), 0.996. In addition, the relative viability in the assay with AZ3146 + Bortezomib (first compound 0.253 µM) came out at 1.02; in the assay with AZ3146 + Bortezomib (first compound 0.8 µM), 0.978; with AZ3146 + Bortezomib (first compound 2.53 µM), 1.01; with AZ3146 + Bortezomib (first compound 8 µM), 0.908; with AZ3146 + Tozasertib (first compound 0.08 µM) it was 0.194; with AZ3146 + Tozasertib (first compound 0.253 µM) it was 0.189. The relative viability with AZ3146 + Tozasertib (first compound 0.8 µM) stood at 0.158; with AZ3146 + Tozasertib (first compound 2.53 µM), 0.216; with AZ3146 + Tozasertib (first compound 8 µM) it was 0.189; with AZ3146 + Pemetrexed (first compound 0.08 µM), 0.953; in the assay with AZ3146 + Pemetrexed (first compound 0.253 µM) it was 0.85; with AZ3146 + Pemetrexed (first compound 0.8 µM), 0.912. Further, the relative viability came out at 0.924 with AZ3146 + Pemetrexed (first compound 2.53 µM) and 0.799 in the assay with AZ3146 + Pemetrexed (first compound 8 µM).

On to NCI-H23, for which the relative viability with GSK-J4 + Dasatinib (first compound 0.5 µM) came out at 0.872; in the assay with GSK-J4 + Dasatinib (first compound 1.581 µM) it was 0.73; with GSK-J4 + Dasatinib (first compound 5 µM) it was 0.723; with GSK-J4 + Dasatinib (first compound 15.81 µM), 0.723; with GSK-J4 + Dasatinib (first compound 50 µM) it was 0.617; with AZ3146 + Bortezomib (first compound 0.08 µM), 1.15. For the same cell line, the relative viability was 1.08 in the assay with AZ3146 + Bortezomib (first compound 0.253 µM); 1.21 with AZ3146 + Bortezomib (first compound 0.8 µM); 1.11 with AZ3146 + Bortezomib (first compound 2.53 µM); 0.876 with AZ3146 + Bortezomib (first compound 8 µM); 0.315 in the assay with AZ3146 + Tozasertib (first compound 0.08 µM); 0.338 in the assay with AZ3146 + Tozasertib (first compound 0.253 µM). Moreover, the relative viability with AZ3146 + Tozasertib (first compound 0.8 µM) was determined as 0.362; with AZ3146 + Tozasertib (first compound 2.53 µM), 0.301; in the assay with AZ3146 + Tozasertib (first compound 8 µM) it was 0.338; in the assay with AZ3146 + Pemetrexed (first compound 0.08 µM), 0.789; in the assay with AZ3146 + Pemetrexed (first compound 0.253 µM), 0.645; in the assay with AZ3146 + Pemetrexed (first compound 0.8 µM), 0.857. Moreover, the values for the relative viability with AZ3146 + Pemetrexed (first compound 2.53 µM) and with AZ3146 + Pemetrexed (first compound 8 µM) were 0.787 and 0.45, respectively.

For the cell line NCI-H322M, the relative viability with GSK-J4 + Dasatinib (first compound 0.5 µM) turned out to be 0.269; with GSK-J4 + Dasatinib (first compound 1.581 µM) it was 0.19; with GSK-J4 + Dasatinib (first compound 5 µM), 0.237; in the assay with GSK-J4 + Dasatinib (first compound 15.81 µM) it was 0.23; in the assay with GSK-J4 + Dasatinib (first compound 50 µM), 0.278; with AZ3146 + Bortezomib (first compound 0.08 µM) it was 1.29. Also, the relative viability with AZ3146 + Bortezomib (first compound 0.253 µM) was 1.18; with AZ3146 + Bortezomib (first compound 0.8 µM) it was 1.18; with AZ3146 + Bortezomib (first compound 2.53 µM), 1.29; in the assay with AZ3146 + Bortezomib (first compound 8 µM), 1.18; with AZ3146 + Tozasertib (first compound 0.08 µM), 0.455; with AZ3146 + Tozasertib (first compound 0.253 µM), 0.466. Besides, the relative viability with AZ3146 + Tozasertib (first compound 0.8 µM) is 0.439; with AZ3146 + Tozasertib (first compound 2.53 µM) it was 0.495; with AZ3146 + Tozasertib (first compound 8 µM), 0.509; with AZ3146 + Pemetrexed (first compound 0.08 µM), 0.59; in the assay with AZ3146 + Pemetrexed (first compound 0.253 µM) it was 0.585; in the assay with AZ3146 + Pemetrexed (first compound 0.8 µM), 0.609. For the same cell line, the relative viability with AZ3146 + Pemetrexed (first compound 2.53 µM) amounted to 0.574; with AZ3146 + Pemetrexed (first compound 8 µM), 0.642.

In the case of NCI-H441, the relative viability with GSK-J4 + Dasatinib (first compound 0.5 µM) came to 0.537; with GSK-J4 + Dasatinib (first compound 1.581 µM), 0.537; with GSK-J4 + Dasatinib (first compound 5 µM), 0.735; with GSK-J4 + Dasatinib (first compound 15.81 µM) it was 0.516; in the assay with GSK-J4 + Dasatinib (first compound 50 µM), 0.358; in the assay with AZ3146 + Bortezomib (first compound 0.08 µM), 0.394. The relative viability worked out at 0.743 in the assay with AZ3146 + Bortezomib (first compound 0.253 µM); 0.602 in the assay with AZ3146 + Bortezomib (first compound 0.8 µM); 1.02 with AZ3146 + Bortezomib (first compound 2.53 µM); 0.346 in the assay with AZ3146 + Bortezomib (first compound 8 µM); 0.676 with AZ3146 + Tozasertib (first compound 0.08 µM); 0.701 with AZ3146 + Tozasertib (first compound 0.253 µM). The relative viability with AZ3146 + Tozasertib (first compound 0.8 µM) was found to be 0.595; in the assay with AZ3146 + Tozasertib (first compound 2.53 µM), 0.588; in the assay with AZ3146 + Tozasertib (first compound 8 µM), 0.266; with AZ3146 + Pemetrexed (first compound 0.08 µM), 0.256; with AZ3146 + Pemetrexed (first compound 0.253 µM) it was 0.251; with AZ3146 + Pemetrexed (first compound 0.8 µM) it was 0.251. Moreover, the relative viability was 0.266 with AZ3146 + Pemetrexed (first compound 2.53 µM) and 0.274 in the assay with AZ3146 + Pemetrexed (first compound 8 µM).
